Measured values taken from the NIST ThermoML archive (doi:10.1021/acs.jced.5b01023).

Assay: xn = mol fraction of the nth substance listed
Conditions: for surface tension liquid-gas: Wilhelmy plates; for viscosity / mass density: 101 kPa, Liquid; for viscosity: Capillary tube (Ostwald / Ubbelohde) method; for mass density: Vibrating tube method

CC(=O)[O-].CCn1cc[n+](C)c1 [1-ethyl-3-methylimidazolium acetate] + CCCO
Conditions	mass density [kg/m3]	surface tension liquid-gas [mN/m]	viscosity [mPa·s]
288.15 K, x1 = 0.1017	869.4	25.8	4.866
288.15 K, x1 = 0.2004	915.48	27.4	7.99
288.15 K, x1 = 0.3001	953.82	29.7	13.36
288.15 K, x1 = 0.3998	986.05	31.7	22.26
288.15 K, x1 = 0.4997	1013.52	33.7	36.38
288.15 K, x1 = 0.5996	1037.16	35.6	57.47
288.15 K, x1 = 0.6998	1057.65	37.7	90.15
288.15 K, x1 = 0.8002	1075.6	40.2	135
288.15 K, x1 = 0.8991	1090.97	43.2	196.8
288.15 K, x1 = 1	1105.2	47.7	283.8
298.15 K, x1 = 0.1017	862.03	25.2	3.822
298.15 K, x1 = 0.2004	908.4	26.5	6.163
298.15 K, x1 = 0.3001	946.94	29.2	9.963
298.15 K, x1 = 0.3998	979.34	31	15.81
298.15 K, x1 = 0.4997	1006.95	33.1	24.44
298.15 K, x1 = 0.5996	1030.7	34.7	36.48
298.15 K, x1 = 0.6998	1051.29	37.2	53.65
298.15 K, x1 = 0.8002	1069.33	39.7	75.63
298.15 K, x1 = 0.8991	1084.89	42.7	103.9
298.15 K, x1 = 1	1099.03	47.1	139
308.15 K, x1 = 0.1017	854.63	24.7	3.038
308.15 K, x1 = 0.2004	901.33	25.8	4.878
308.15 K, x1 = 0.3001	940.1	28.7	7.657
308.15 K, x1 = 0.3998	972.66	30.7	11.7
308.15 K, x1 = 0.4997	1000.41	32.7	17.3
308.15 K, x1 = 0.5996	1024.28	34.2	24.75
308.15 K, x1 = 0.6998	1044.96	36.6	34.59
308.15 K, x1 = 0.8002	1063.09	39.2	46.49
308.15 K, x1 = 0.8991	1078.75	42.2	60.98
308.15 K, x1 = 1	1092.93	46.6	77.32
318.15 K, x1 = 0.1017	–	23.9	2.461
318.15 K, x1 = 0.2004	–	25.3	3.952
318.15 K, x1 = 0.3001	–	28.5	6.043
318.15 K, x1 = 0.3998	–	30.2	8.961
318.15 K, x1 = 0.4997	–	32.2	12.78
318.15 K, x1 = 0.5996	–	33.3	–
318.15 K, x1 = 0.6998	–	36.1	–
318.15 K, x1 = 0.8002	–	38.8	–
318.15 K, x1 = 0.8991	–	41.8	–
318.15 K, x1 = 1	–	46.1	–
